Source: paper PMC10101016, “The Photoactive Photosynthetic Reaction Center of a Rhodobacter sphaeroides Mutant Lacking 3-Vinyl (Bacterio)Chlorophyllide a Hydratase Contains 3-Vinyl Bacteriochlorophyll a” (Microbiology Spectrum, 2023)
Like-named read-outs stand apart in the source and are kept apart here.

Biological target: T1, reaction center (WT-RC, V-RC) (Cereibacter sphaeroides, UniProt Q3J1A5+Q3J1A6)
T1 construct: gene pufL

SMILES: COC(C)(C)C(=O)/C=C/C(C)=C/C=C/C(C)=C/C=C/C(C)=C/C=C/C=C(C)/C=C/C=C(\C)CC/C=C(\C)CCC=C(C)C [SO]
- pigment extraction and HPLC of purified RC, absorption spectrum (WT-RC and V-RC, semiaerobically grown cells): two Bpheo a molecules, and one spheroidenone (SO) molecule

SMILES: COC(C)(C)C/C=C/C(C)=C/C=C/C(C)=C/C=C/C(C)=C/C=C/C=C(C)/C=C/C=C(\C)CC/C=C(\C)CCC=C(C)C [SE]
- pigment extraction and HPLC of purified RC, absorption spectrum (WT-RC and V-RC, photoheterotrophically grown cells): except for the presence of spheroidene (SE), which reflects the culture conditions

SMILES: C=Cc1c(C)c2cc3nc(c4c5[nH]c(cc6nc(cc1[nH]2)[C@H](C)[C@H]6CC)c(C)c5C(=O)[C@@H]4C(=O)OC)[C@@H](CCC(=O)OC/C=C(\C)CCC[C@H](C)CCC[C@H](C)CCCC(C)C)[C@@H]3C [3V-Bpheo a]
- pigment extraction and HPLC of purified RC, absorption spectrum (V-RC from BFcfh-puhA, H-sites): The V-RC was estimated to contain four 3V-Bchl a molecules, two 3V-Bpheo a molecules
